Test results published in patent US7422733B2, “Linkable sialyl Lewis X analogs” (Bracco International B.V., priority 2000, dated 2008).

Assays:
E-selectin [1] = target: T1, E-selectin (Homo sapiens, UniProt P16581); conditions: in vitro, published value; cited from earlier work
T1 sequence (P16581 22-610): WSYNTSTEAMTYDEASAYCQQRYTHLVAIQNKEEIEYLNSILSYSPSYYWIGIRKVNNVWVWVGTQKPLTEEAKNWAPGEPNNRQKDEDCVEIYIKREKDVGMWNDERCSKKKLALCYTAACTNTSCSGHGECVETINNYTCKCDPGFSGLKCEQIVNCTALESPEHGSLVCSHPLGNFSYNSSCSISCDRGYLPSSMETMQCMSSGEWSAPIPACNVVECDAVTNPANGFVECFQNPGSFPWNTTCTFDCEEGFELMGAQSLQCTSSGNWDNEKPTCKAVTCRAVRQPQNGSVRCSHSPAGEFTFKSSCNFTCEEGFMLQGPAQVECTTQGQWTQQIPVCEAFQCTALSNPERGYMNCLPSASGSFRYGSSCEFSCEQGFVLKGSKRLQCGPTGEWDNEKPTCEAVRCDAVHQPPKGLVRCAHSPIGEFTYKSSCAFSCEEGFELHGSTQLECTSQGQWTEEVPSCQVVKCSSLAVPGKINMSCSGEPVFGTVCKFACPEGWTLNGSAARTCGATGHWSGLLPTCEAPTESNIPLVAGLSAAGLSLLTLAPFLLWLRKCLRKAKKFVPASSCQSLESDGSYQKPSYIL

E-selectin [2] = target: T1, E-selectin; assay: binding of radiolabeled analog 3b to human aortic endothelial cells in vitro (E-selectin binding assay); design: endogenous in cells; host or cells: human aortic endothelial cells, stimulated with TNF-alpha or unstimulated
Experimental: We evaluated the ability of the radiolabeled acetamido-phenyl Sialyl Lewis^x analog 3b to bind to human aortic endothelial cells in vitro. […] S. A. DeFrees et al., J. Am. Chem. Soc., 117:66-79 (1995). […] The binding sites were specific to native Sialyl Lewis^x, since it was shown that cold unlabeled Sialyl Lewis^x (formula A) at a concentration of 10 mM displaced close to 50% of the bound counts at 0.2 mM concentration.

| Compound | Kd (E-selectin [1]) | displacement of bound counts (E-selectin [2]; cold unlabeled competitor at 10 mM, bound 3b counts at 0.2 mM) | behaviour in E-selectin binding assay compared to native Sialyl Lewis^x (E-selectin [2]) | concentrations at which the analog bound significantly (E-selectin [2]; activated human aortic endothelial cells, 14C-labeled analog) | increase in the extent of binding in TNF-α stimulated cells over unstimulated control cells (E-selectin [2]; cells stimulated with TNF-α vs unstimulated control cells) | binding relative to published Kd of native Sialyl Lewis^x (E-selectin [2]; compared with published value of 1-2 mM) |
| --- | --- | --- | --- | --- | --- | --- |
| CC(=O)NC1C(O)OC(CO)C(OC2OC(CO)C(O)C(OC3(C(=O)O)CC(O)C(NC(C)=O)C([C@H](O)[C@H](O)CO)O3)C2O)C1OC1OC(C)C(O)C(O)C1O (stereo partly drawn) [Sialyl Lewis^x, sialyl Lewis X] | 1000 to 2000 µM | ~50% |  |  |  |  |
| CC(=O)N[C@H]1[C@H](Oc2ccc(N[14C](C)=O)cc2)O[C@H](CO)[C@@H](O[C@@H]2O[C@H](CO)[C@H](O)[C@H](O[C@]3(C(=O)O)C[C@H](O)[C@@H](NC(C)=O)[C@H]([C@H](O)[C@H](O)CO)O3)[C@H]2O)[C@@H]1O[C@@H]1O[C@@H](C)[C@@H](O)[C@@H](O)[C@@H]1O [compound 3b] |  |  | superior to native Sialyl Lewis^x | 0.1-0.2 mM | two-fold increase | ten fold greater |
